Read-outs that look alike come from different tables or passages of the source.
Columns and labels:
[1] = target: T1, E. coli leucyl-tRNA synthetase (LeuRS) (Escherichia coli, UniProt P07813); assay: incorporation of Nal into mDHFR at Leu codon UUG, effect of LeuRS inhibitor; format: cell-based
T1 construct: endogenous in cells; host or cells: E. coli expression strain (Phe/Leu auxotroph) carrying ytRNAPheCAA and modified yeast PheRS
Excerpt: In this example, multiple-site-specific incorporation of an unnatural amino acid into murine dihydrofolate reductase (mDHFR) in response to a sense codon was realized by use of an E. coli strain outfitted with a yeast transfer RNA (ytRNA^pheCAA) capable of Watson-Crick base-pairing with the leucine (Leu) codon UUG. ytRNA^pheCAA was charged with L-3-(2-naphthyl)alanine (Nal) by a co-expressed modified yeast phenylalanine tRNA synthetase. See schematic diagram in FIG. 3.
Incomplete occupancy of the UUG codon by Nal is due at least in part to competition with leucine-charged E. coli tRNA^Leus. In an attempt to reduce competition by E. coli tRNA^Leus, use of a mutant E. coli strain lacking tRNA^LeuCAA and addition of an E. coli leucyl-tRNA synthetase (LeuRS) inhibitor were tested. A Phe/Leu double auxotrophic strain derived from the tRNA^LeuCAA-deficient strain XA106 (CGSC at Yale) was tested for incorporation of Nal at the UUG codon.
Replacement of Leu by Nal was detected in MALDI mass spectra of tryptic fragments of mDHFR (FIG. 4). […] Furthermore, Nal incorporation was not detected when UUG was mutated to UUA in Peptide 3. No signal corresponding to Peptide 4CUG (Nal) was detected, whereas that corresponding to Peptide 4CUG was detected at 904.54 mass units. […]

[2] = target: T1, E. coli leucyl-tRNA synthetase (LeuRS); settings: in vitro; cited from earlier work
[3] = target: T2, mu-yPheRS (modified yeast PheRS, Thr415Gly) (Saccharomyces cerevisiae, UniProt P15625, T415G); assay: adenosine triphosphate-pyrophosphate exchange assay (amino acid activation); format: biochemical; settings: larger than Phe
T2 construct: made in house
T2 sequence (P15624 whole entry): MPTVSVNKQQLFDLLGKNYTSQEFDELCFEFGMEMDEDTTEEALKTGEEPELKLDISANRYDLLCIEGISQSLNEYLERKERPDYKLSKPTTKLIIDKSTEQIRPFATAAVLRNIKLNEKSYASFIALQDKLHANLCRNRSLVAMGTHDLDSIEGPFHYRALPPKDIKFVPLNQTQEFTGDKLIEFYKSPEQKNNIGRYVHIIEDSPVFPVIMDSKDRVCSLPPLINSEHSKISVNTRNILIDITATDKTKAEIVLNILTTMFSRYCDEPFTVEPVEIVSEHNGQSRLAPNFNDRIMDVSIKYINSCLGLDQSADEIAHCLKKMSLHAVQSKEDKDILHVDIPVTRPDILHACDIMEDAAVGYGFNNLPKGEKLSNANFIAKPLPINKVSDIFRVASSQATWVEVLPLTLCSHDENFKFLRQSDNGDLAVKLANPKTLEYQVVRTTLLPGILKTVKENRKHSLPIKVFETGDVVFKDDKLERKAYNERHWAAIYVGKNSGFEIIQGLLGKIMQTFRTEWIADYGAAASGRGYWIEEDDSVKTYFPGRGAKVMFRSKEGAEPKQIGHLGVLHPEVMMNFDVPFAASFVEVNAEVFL
T2 sequence (P15625 whole entry T415G): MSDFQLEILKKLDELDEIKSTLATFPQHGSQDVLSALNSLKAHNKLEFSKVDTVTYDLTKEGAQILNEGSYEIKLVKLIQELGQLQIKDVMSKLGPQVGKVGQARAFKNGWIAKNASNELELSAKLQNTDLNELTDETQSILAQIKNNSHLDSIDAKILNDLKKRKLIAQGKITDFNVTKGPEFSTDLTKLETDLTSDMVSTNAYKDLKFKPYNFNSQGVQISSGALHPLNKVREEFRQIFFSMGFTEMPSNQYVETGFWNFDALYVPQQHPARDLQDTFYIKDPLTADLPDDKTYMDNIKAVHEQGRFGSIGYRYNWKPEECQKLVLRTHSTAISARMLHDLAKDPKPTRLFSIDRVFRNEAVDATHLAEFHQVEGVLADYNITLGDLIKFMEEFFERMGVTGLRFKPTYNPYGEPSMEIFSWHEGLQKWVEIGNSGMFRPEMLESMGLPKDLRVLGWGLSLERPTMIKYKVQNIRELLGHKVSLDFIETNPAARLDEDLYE
Description: The modified yeast PheRS (mu-yPheRS) was prepared by introduction of a Thr415Gly mutation in the α-subunit of the synthetase (Datta el al., J. Am. Chem. Soc. 124: 5652, 2002). The kinetics of activation of Nal and Phe by mu-yPheRS were analyzed in vitro via the adenosine triphosphate-pyrophosphate exchange assay.

E. coli strain (K10-F6) = assay: incorporation of Nal into mDHFR at Phe codons UUU/UUC (amino acid analysis, MALDI of tryptic digests); format: cell-based
Description: In this construct, four of the Phe residues of mDHFR are encoded by UUC codons, five by UUU. A full-length copy of the mu-yPheRS gene, under control of a constitutive tac promoter, was inserted into pQE16. […] E. coli transformants harboring these two plasmids were incubated in Phe-depleted minimal medium supplemented with 3 mM Nal and were then treated with 1 mM IPTG to induce expression of mDHFR. Although the E. coli strain (K10-F6) used in this study is a Phe auxotroph, (see Furter, supra) a detectable level of mDHFR was expressed even under conditions of nominal depletion of Phe, probably because of release of Phe through turnover of cellular proteins. In negative control experiments, mDHFR was expressed in the absence of either ytRNA^PheAAA or mu-yPheRS. […] For mDHFR isolated from the strain harboring the heterologous pair, amino acid analysis indicated replacement of 4.4 of the 9 Phe residues by Nal.
Tryptic digests of mDHFR were analyzed to determine the occupancy of individual Phe sites. Peptide 1UUU (residues 184-191, […], SEQ ID NO: 1) contains a Phe residue encoded as UUU, whereas peptides 2UUC (residues 62-70, […], SEQ ID NO: 2) and 3UUC (residues 26-39, […], SEQ ID NO: 3) each contain a Phe residue encoded as UUC. In the absence of Nal, peptide 1UUU was detected with a monoisotopic mass of 1105.55 Da, in accord with its theoretical mass (FIG. 2A). […] As described earlier, each substitution of Nal for Phe leads to a mass increase of 50.06 Da; the observed shift in mass is thus consistent with replacement of Phe by Nal in response to the UUU codon. Liquid chromatography-tandem mass spectrometry (LC/MS/MS) confirmed this assignment.
Similar analyses were conducted for peptides 2UUC and 3UUC. In the absence of added Nal, the observed masses of peptides 2UUC and 3UUC are 1135.61 (FIG. 2A) and 1682.89 Da (FIG. 2D), respectively, as expected. […] Nal incorporation thus appears to be rare at UUC codons under the conditions used here for protein expression.
There is at least a formal possibility that the observed codon-biased incorporation of Nal might be dependent on codon context rather than, or in addition to, codon identity. MALDI sampling errors are also possible. To test these possibilities, a mutant mDHFR gene was prepared by mutating the UUU codon in peptide 1UUU to UUC, and the UUC codon in peptide 3UUC to UUU. In the resulting peptide 1UUC, the signal indicating incorporation of Nal was only slightly above background (FIG. 2C), whereas for peptide 3UUU, Nal is readily detected (FIG. 2F). Nal incorporation is unambiguously codon-biased to UUU.

Escherichia coli = settings: cited from earlier work
[4] = modified using conventional amine-PEGylation; cited from earlier work
[5] = degree similar to Ceredase; cited from earlier work
[6] = cited from earlier work

T1 sequence (P07813 whole entry): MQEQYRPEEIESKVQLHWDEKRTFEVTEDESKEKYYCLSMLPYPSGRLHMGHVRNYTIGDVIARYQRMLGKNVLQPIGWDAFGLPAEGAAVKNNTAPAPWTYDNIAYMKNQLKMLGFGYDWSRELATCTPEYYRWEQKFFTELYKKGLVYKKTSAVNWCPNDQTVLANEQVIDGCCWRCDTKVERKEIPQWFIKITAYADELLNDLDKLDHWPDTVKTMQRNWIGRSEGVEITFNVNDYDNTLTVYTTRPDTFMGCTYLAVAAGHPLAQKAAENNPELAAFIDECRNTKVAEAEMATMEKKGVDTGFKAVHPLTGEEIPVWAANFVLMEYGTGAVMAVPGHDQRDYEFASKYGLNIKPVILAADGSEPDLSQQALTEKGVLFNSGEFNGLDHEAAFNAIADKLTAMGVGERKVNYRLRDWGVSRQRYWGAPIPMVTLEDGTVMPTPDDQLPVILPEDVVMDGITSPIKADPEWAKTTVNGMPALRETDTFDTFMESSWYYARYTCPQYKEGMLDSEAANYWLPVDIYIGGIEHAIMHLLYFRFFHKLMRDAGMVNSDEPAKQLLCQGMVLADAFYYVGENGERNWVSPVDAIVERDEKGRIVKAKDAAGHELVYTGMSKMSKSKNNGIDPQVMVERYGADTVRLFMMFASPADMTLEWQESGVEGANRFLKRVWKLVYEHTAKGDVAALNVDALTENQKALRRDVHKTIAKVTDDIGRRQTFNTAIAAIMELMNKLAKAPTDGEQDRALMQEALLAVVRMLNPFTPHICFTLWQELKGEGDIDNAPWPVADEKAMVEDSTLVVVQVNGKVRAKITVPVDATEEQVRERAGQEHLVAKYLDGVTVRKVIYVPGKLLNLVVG

Q: For `CN(C)CC(N)C(=O)O` (racemic) [AZL, 4-Aza-DL-leucine], which “effect on occupancy of the UUG codon by Nal” value ([1]; 1 mM AZL in the media) is on record?
A: The value was “enhanced occupancy”.

Q: What about the “inhibition of E. coli LeuRS” value [2] of the same molecule?
A: The value was “competitive inhibitor”.

Q: With `N[C@@H](Cc1ccc2ccccc2c1)C(=O)O` [Nal, L-3-(2-naphthyl)alanine] as the molecule, how does the “re-assignment of the UUG codon to Nal” value ([1]; ytRNA^PheCAA and modified yeast PheRS, mass spectrometry of tryptic digests) read?
A: Its value is “partially re-assigned”.

Q: What about the “specificity constant relative to that for Phe” value [3] of the same molecule?
A: The value was 8 fold.

Q: What about the “Nal incorporation at the UUU codon” value (E. coli strain (K10-F6); MALDI signal intensities, peptide 1UUU) of the same molecule?
A: The value was “dominant”.

Q: What about the “Nal incorporation at UUC codons” value (E. coli strain (K10-F6); MALDI, peptides 2UUC and 3UUC) of the same molecule?
A: The value was “rare”.

Q: What about the “Phe residues of mDHFR replaced by Nal” value (E. coli strain (K10-F6); of the 9 Phe residues, strain harboring ytRNA^PheAAA and mu-yPheRS, 3 mM Nal, amino acid analysis) of the same molecule?
A: The value was 4.4.

Q: What about the “incorporation of Nal into mDHFR” value (E. coli strain (K10-F6); without ytRNA^PheAAA or mu-yPheRS, amino acid analysis) of the same molecule?
A: The value was “no incorporation”.

Q: With `CC1(C)S[C@@H]2[C@H](NC(=O)[C@H](N)c3ccccc3)C(=O)N2[C@H]1C(=O)O` [ampicillin] as the molecule, how does the IC50 of cells (Escherichia coli; SctRNAGlnCUA coexpressed with ScGlnRS) read?
A: The IC50 of cells was “about 500 μg/mL”.

Q: What about the IC50 of cells (Escherichia coli; only SctRNAGlnCUA expressed) of the same molecule?
A: Its IC50 of cells is 20 µg/mL.

B1: GCSF: GCSF modified using conventional amine-PEGylation technologies (conjugate, UniProt P09919 31-207, looked up)
Granulocyte …: TPLGPASSLPQSFLLKCLEQVRKIQGDGAALQEKLVSECATYKLCHPEELVLLGHSLGIPWAPLSSCPSQALQLAGCLSQLHSGLFLYQGLLQALEGISPELGPTLDTLQLDVADFATTIWQQMEELGMAPALQPTQGAMPAFASAFQRRAGGVLVASHLQSFLEVSYRVLRHLAQP
modifications: amine PEGylation
notes: GCSF modified using conventional amine-PEGylation technologies
Q: With B1 as the molecule, how does the reduction of bioactivity [4] read?
A: The reduction of bioactivity was 1,000 fold.

B2: Cerezyme: recombinant analogue of the human enzyme β-Glucocerebrosidase, imiglucerase for injection (protein, UniProt P04062 40-536, looked up, variant R495H)
Lysosomal acid …: ARPCIPKSFGYSSVVCVCNATYCDSFDPPTFPALGTFSRYESTRSGRRMELSMGPIQANHTGTGLLLTLQPEQKFQKVKGFGGAMTDAAALNILALSPPAQNLLLKSYFSEEGIGYNIIRVPMASCDFSIRTYTYADTPDDFQLHNFSLPEEDTKLKIPLIHRALQLAQRPVSLLASPWTSPTWLKTNGAVNGKGSLKGQPGDIYHQTWARYFVKFLDAYAEHKLQFWAVTAENEPSAGLLSGYPFQCLGFTPEHQRDFIARDLGPTLANSTHHNVRLLMLDDQRLLLPHWAKVVLTDPEAAKYVHGIAVHWYLDFLAPAKATLGETHRLFPNTMLFASEACVGSKFWEQSVRLGSWDRGMQYSHSIITNLLYHVVGWTDWNLALNPEGGPNWVRNFVDSPIIVDITKDTFYKQPMFYHLGHFSKFIPEGSQRVGLVASQKNDLDAVALMHPDGSAVVVVLNRSSKDVPLTIKDPAVGFLETISPGYSIHTYLWHRQ
modifications: imiglucerase
notes: recombinant analogue of the human enzyme β-Glucocerebrosidase, imiglucerase for injection
Q: What does the source list for B2?
A: clinical effect [5]: improved anemia and thrombocytopenia, reduced spleen and liver size, and decreased cachexia; time to steady-state enzymatic activity ([6]; during one-hour intravenous infusions): ≤ 30 min; plasma clearance, mean±S.D. ([6]; in vivo): 14.5 ± 4.0 mL/min/kg; volume of distribution corrected for weight, mean±S.D. ([6]; in vivo): 0.12 ± 0.02 L/kg
